{
  "source": "patent US20220280461A1",
  "about": "“SOLID ORAL DOSAGE FORM COMPRISING NAPROXEN AND VITAMIN B12” (DSM IP ASSETS B.V., priority 2019, published 2022)",
  "assay": "Bulk density, tapped density and Carr Index (flowability) of raw materials and granules",
  "method": "The Carr Index is calculated by the formula 100×(1-BD/TD) and is used as an indication of the flowability.",
  "data": [
    {"compound": "COc1ccc2cc([C@H](C)C(=O)O)ccc2c1", "note": "[Naproxen Sodium, naproxen sodium]", "values": [
      {"measurement": "Description (physical characterization of powder)", "value": "very lumpy"}
    ]}
  ]
}
